Columns and labels:
TNF-α = TNF-α gene expression in mononuclear cells derived from synovial fluid of RA patients, real-time PCR; type: cell-based, human; settings: 24 h, compared to the non-citrullinated peptides
Experimental: To assess the effect of the Cit-ME peptide (SEQ ID NO: 1) on inflammatory related genes expression, peripheral blood mononuclear cells derived from synovial fluid rheumatoid arthritis patients were incubated with the Cit-ME multi-epitope citrullinated peptide for 24 h. The effect of the peptide on gene expression was compared also to the effect of infliximab, a TNF-α blocker, which is an antirheumatic drug that acts as an anti-inflammatory compound. […] Results were determined by real-time PCR.

CD4+CD25+Foxp3+ T cells = assay: Regulatory T cell proportion in PBMC of RA patients, FACS; type: cell-based, human; settings: 1.25 μg/ml peptide, 48 hours, compared with non-citrullinated matched peptide
Experimental: Given the observed immunomodulation of cytokines following incubation of peripheral blood mononuclear cells obtained from rheumatoid arthritis patients with citrullinated peptides, the citrullinated peptides were tested for their ability to exert an effect on the T regulatory population proportion. Peripheral blood mononuclear cells of rheumatoid arthritis patients were cultured in the presence of 1.25 μg/ml of the peptides (Fil-Cit, β-Fib-Cit, and Cit-ME; FIGS. 6A, 6B and 6E, respectively, and Fil-NC, β-Fib-NC and Non-Cit-ME; FIGS. 6C, 6D and 6G, respectively), and Infliximab (FIG. 6F) for 48 hours. Cells cultured with medium devoid of the peptides and Infliximab served as control (FIG. 6H). Thereafter, cells were stained for the expression of CD4, CD25, and FoxP3 and analyzed by FACS. […] Mean percentage of CD4^+CD25^+Foxp3^+ T cells in the presence of Infliximab was increased by 14% as compared to medium (FIG. 6F and FIG. 6H, respectively). Thus, citrullinated peptides are able to induce the expansion of the T regulatory cell population.

CD4+IL-17+ T cells = CD4+IL-17+ T cells in the spleen of AIA rats, FACS; type: in vivo, rat
Experimental: Distribution of pathogenic CD4^+IL-17^+ T cells in the spleen of experimental rats was assessed by FACS.

[1] = tested on: CD4+CD25+FoxP3+ regulatory T cells; assay: Regulatory T cells in splenocytes of AIA rats, FACS; type: in vivo, rat
Excerpt: Splenocytes from rats at day 28 post disease induction were stained with anti-CD4-FITC, anti-CD25-APC, and anti-Foxp3-PE (eBioscience) mAbs and analyzed by FACS. In representative outputs as shown in FIG. 12A-C, Regulatory T cells subpopulation was higher in Cit-ME treated rats (9%), compared to 7% and 6.2% in Non-Cit-ME peptide and untreated rats, respectively. Statistical analysis of the results is shown in FIG. 12D (Cit-ME n=9, Non-Cit-ME n=11, untreated rats n=7).

[2] = tested on: T cells derived from the spleen; assay: Apoptosis of T cells from the spleen of AIA rats, Annexin V/PI staining; type: in vivo, rat; settings: gated for PI and CD4+, two independent experiments, control 13±1%
Experimental: To assess apoptosis of T cells derived from the spleen of treated rats, the Annexin V/PI staining method was preformed. FIGS. 14A-14C are representative histograms of cells treated with Cit-Me (FIG. 14A), non-Cit-Me (FIG. 14B) or untreated (FIG. 14C). The histograms present apoptosis measured by Annexin V^+. First, cells were gated for PI and CD4^+ and next analyzed for percentage of Annexin-V positive cells. […] A significant increase (p<0.01) in the mean apoptotic rate was determined in cells from the spleen of Cit-ME treated rats (19.5±1.8%) in comparison with Non-Cit-ME or control (13.8±1.3% and 13±1%, respectively).

anti cit-collagen ACPA = assay: Peptide inhibition assay in ELISA, plates coated with cit-collagen; parameters: species or system human; settings: sera of ACPA-positive RA patients diluted to about 50% binding OD, 2 h preincubation at room temperature
Experimental: (§1) Peptide inhibition assay in ELISA was used to confirm the cross-reactivity of the Cit-ME peptide to the following anti-citrullinated protein antibodies (ACPA): anti citrullinated filaggrin, anti cit-β-fibrinogen, anti cit-collagen and anti cit-vimentin. Sera were obtained from ACPA RA patients and samples with highly positive ACPA levels were selected (≥100 U/ml) using commercial CCP ELISA test (INOVA). ELISA test was performed with each of the citrullinated peptides: cit-filaggrin (HQCHQESTCitGRSRGRCGRSGS) set forth in SEQ ID NO: 3, cit-β-fibrinogen (CitPAPPPISGGGYCitACit) set forth in SEQ ID NO: 2, cit-collagen (ACitGLTGCitPGDAK) set forth in SEQ ID NO: 21 and cit-vimentin (SAVRACitSSVPGVRK) set forth in SEQ ID NO: 22. Sera were diluted in PBS to obtain a reactivity of approximately 50% binding OD under standard assay conditions. Increasing concentrations of Cit-ME peptide were added to the diluted sera and incubated for two hours at room temperature. Specimens were then assayed in ELISA plates coated with each one of the peptides. […] Thus, ACPA have binding specificity to Cit-ME.

[3] = tested on: anti cit-β-fibrinogen ACPA; assay: Peptide inhibition assay in ELISA, plates coated with cit-β-fibrinogen; parameters: species or system human; settings: sera of ACPA-positive RA patients diluted to about 50% binding OD, 2 h preincubation at room temperature
Experimental: as §1

amount of peptide sufficient to impair binding of specific ACPA to cit-collagen (anti cit-collagen ACPA): 10 to 200 µg | amount of peptide sufficient to impair binding of specific ACPA to cit-β-fibrinogen [3]: 10 to 200 µg
Substance: VCitLCitSSVESTCitGRSCitPAPPPACitGLT [Cit-ME]
expression of TNF-α (TNF-α): down-regulated | increase in mean percentage of CD4+CD25+Foxp3+ T cells (CD4+CD25+Foxp3+ T cells): 12% | population of CD4+IL-17+-expressing splenocytes, statistical analysis (CD4+IL-17+ T cells; AIA rats, n=8, untreated 1.14±0.2): 0.68±0.1 | IL-17+ population, representative results (CD4+IL-17+ T cells; spleen of AIA rats, untreated 2%): 0.6% | percentage of CD4+CD25+FoxP3+ regulatory T cells subset, statistical analysis ([1]; spleens of AIA rats, day 28, untreated 7.17±0.31): 8.13±0.17% | Regulatory T cells subpopulation, representative outputs ([1]; splenocytes of AIA rats, day 28 post disease induction, untreated 6.2%): 9% | mean apoptotic rate (Annexin-V positive cells) [2]: 19.5±1.8%

Reference: patent publication US9975944B2, “Synthetic peptides for the treatment of autoimmune diseases” (TEL HASHOMER MEDICAL RESEARCH INFRASTRUCTURE AND SERVICES …, priority 2013, dated 2018)
